Entries after “also recorded” stand apart in the source; their conditions may differ.
Assays:
[1] = system: medial ganglionic eminence (MGE)-derived neural progenitors; test: HD-DoE stage 4, 12-factor experiment: SOX6 expression; type: cell-based, human; conditions: for impact on expression of SOX6: dynamic profile, in words; for factor contribution, expression of SOX6: significant negative effect, model optimized for maximal SOX6
[2] = system: human pluripotent stem cells; test: HD-DoE stage 1, additional experiment: FEZF2 expression; type: cell-based; conditions: for impact on expression of FEZF2: dynamic profile, in words; for factor contribution, expression of FEZF2: positive impact, additional stage 1 experiment optimized for FEZF2
Procedure, shortened: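 Human pluripotent stem cells were exposed for three days to DoE-designed combinations of effectors in basal medium, including LDN193189, PD173074, BLU9931, purmorphamine, CHIR99021, XAV939, tofacitinib and GO6983 among others. Gene expression was measured by qPCR. Values were normalized and modelled by partial least squares regression against the effector design.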

[3] = system: stage 2 neural stem cells; test: HD-DoE stage 3 experiment: ASCL1, LHX6, DLX1 expression; type: cell-based, human
[4] = system: stage 2 neural stem cells; test: Factor criticality analysis, stage 3 recipe; type: cell-based, human; conditions: other five stage 3 factors present

Structure (SMILES)	impact on expression of SOX6 [1]	factor contribution, expression of SOX6 [1]	impact on expression of FEZF2 [2]	factor contribution, expression of FEZF2 [2]	impact on expression of ASCL1 ([3]; dynamic profile, in words)	impact on expression of DLX1 ([3]; dynamic profile, in words)	impact on expression of LHX6 ([3]; dynamic profile, in words)	factor contribution, expression of ASCL1 ([3]; positive, model optimized for maximum ASCL1 at 1700)	expression level of DLX1 when the factor is removed ([4]; 220 with all six factors)	expression level of LHX6 when the factor is removed ([4]; 240 with all six factors)	expression level of ASCL1 when the factor is removed ([4]; 1650 with all six factors)
c1ccc2c(-c3cnn4cc(-c5ccc(N6CCNCC6)cc5)cnc34)ccnc2c1 [LDN193189]	negative effect	9.8	positive impact	18							
O=C(NOC[C@H](O)CO)c1ccc(F)c(F)c1Nc1ccc(I)cc1F [PD0325901]	negative effect	5.1	positive impact	15							
c1ccc2c(Oc3nc(Nc4ccc(N5CCOCC5)cc4)c4ncn(C5CCCCC5)c4n3)cccc2c1 [Purmorphamine]			positive impact	11	positive trends; also recorded: Positive impact	did not have a significant negative impact	positive trends; also recorded: Positive impact	12.7	stayed the same	190	1200

From patent publication US20250092360A1, “METHODS AND COMPOSITIONS FOR GENERATING SOMATOSTATIN+ INTERNEURONS FROM HUMAN FOREBRAIN NEURAL PROGENITOR CELLS” (Trailhead Biosystems Inc., priority 2023, published 2025)
